Values of other authors as cited in patent US20150246061A1, “VITAMIN D ANALOGUES FOR THE TREATMENT OF A NEUROLOGICAL DISORDER” (CELUS PHARMACEUTICALS, INC., priority 2012, published 2015).

Settings: adult humans, longer treatment periods

## C=C1/C(=C\C=C2/CCC[C@]3(C)C([C@@H](C)C/C=C/C(O)(CC)CC)=CC[C@@H]23)C[C@@H](O)C[C@@H]1F [Elocalcitol, elocalcitol]
  daily dose up to which elocalcitol has been shown to be safe: ≤ 150 µg
